Experimental data taken from patent publication US12636260B2, “Application of α-asarone in preparation of medicine for preventing or treating hemorrhagic stroke” (CHENGDU XINRUI TAIKANG TECHNOLOGY CO., LTD., priority 2021, dated 2026).

Columns and labels:
Assay type in all cases: in vivo, rat
ICH rats [1] = test: Ca2+ level and mitochondrial membrane potential in brain tissue, ICH rats; settings: 12-24 hours after operation, group M
Procedure: The rats were decapitated to collect the brain 12 to 24 hours after modeling. The brain cortex around the hematoma was immediately taken to prepare a single cell suspension by enzymatic digestion (papain: 2 mg/mL; DNAase I: 0.05 mg/mL), with the cell concentration was adjusted to 5×10^6 cells/mL. 100 μL of cell suspension was incubated with 5 μM Fluo-3/AM dye solution or 10 μM Rhodamine 123 dye solution at 37° C. for 45 min. Then the cells were washed twice with PBS (phosphate buffer, pH=7.2-7.4), resuspended with 0.5 mL of PBS, and detected by a flow cytometry at the excitation wavelength of 506 nm and the emission wavelength of 526 nm. The mean fluorescence intensity of Fluo-3 and Rh123 in 10,000 cells was analyzed by FlowJo software.

SAH rats [2] = test: Long-term survival rate of SAH rats; settings: for Survival rate / 24-hour mortality rate: 2 hours after modeling then once a day for 14 days
Procedure: The experimental materials, grouping and modeling methods were the same as those in effect embodiment 1. The rats were immediately administrated 2 hours after SAH modeling according to the grouping administration protocol and continued to be administrated once a day for 14 days thereafter, and the survival of the rats was observed and recorded for 14 days. The mortality rate within 24 hours in group S was as high as 53.8%.

SAH rats [3] = test: Short-term neurological function of SAH rats (Garcia score, beam balance test, bleeding score); settings: SAH model; for Beam balance score / Garcia score: 24 hours after modeling
Procedure: Experimental grouping: At 2 h after endovascular perforation or collagenase VII injection, Zea Longa score was used to evaluate the neurological function of rats. Successful model rats were randomly divided into groups for administration.
All groups were administrated through the tail vein injection except for group N administrated intraperitoneally.
The rats were fasted for 12 hours before operation, and were anesthetized with 4% isoflurane, and kept anesthetized with 2% isoflurane. The animals were fixed in the supine position with the body temperature maintained at about 37° C. A traditional skin incision of the neck was performed along the midline. The muscle and fascia were separated along the medial margin of the sternocleidomastoid muscle to expose the right side, then the common carotid artery (CCA), external carotid artery (ECA) and internal carotid artery (ICA) were bluntly separated with disposal lines placed at CCA proximal end, ICA and ECA for use. The CCA proximal end and the ECA were ligated, and the ICA was temporarily clamped with an arterial clip, and then a small hole was poked with a needle at about 4 mm from the bifurcation at the CCA. A nylon suture was introduced into the CCA from the hole and advanced through the ICA after releasing the arterial clip, and the suture was inserted intracranially. […] The suture moved forward for roughly 2 mm to perforate the artery followed by instant withdraw, and then the suture was completely removed and the ICA was ligated. Finally, the incision was cleaned with normal saline and sutured. The sham group conducted the same procedure as the model group except for the perforation. After awakening from anesthesia, the animals were raised normally.
The SAH severity was grading after rat's euthanasia, i.e., completing the evaluation of short-term neurological function. The score was determined by the amount of subarachnoid hemorrhage on the surface of basal cistern and brain tissue which was divided into six parts by the Willis ring composed of basilar artery, anterior cerebral artery, internal carotid artery, posterior cerebral artery and posterior communicating artery. Each part was graded from 0 to 3 points according to the amount of subarachnoid blood clots, i.e., 0 points: no subarachnoid blood; 1 point: a small amount of subarachnoid blood; 2 points: moderate amount of blood clots with recognizable arteries; 3 points: blood clots cover all arteries in the area. All 6 part scores were added up for a total of 18 points. According to the final score, SAH hemorrhage severity could be divided into mild subarachnoid hemorrhage (0 to 7 points), moderate subarachnoid hemorrhage (8 to 12 points), and severe subarachnoid hemorrhage (13 to 18 points). The moderate to severe SAH models were selected for statistical analysis (score≥8 points).
According to Zea Longa's neurological function score, the rats were scored 2 hours after the operation when they were awake from anesthesia. Successful model rats with a score of 1 to 3 points were enrolled in the group: • 0 points: no neurological deficits with normal activity; • 1 point: inability to fully extend the contralateral forepaw; • 2 points: the animal appears to turn in circles when crawling; • 3 points: the animal tends to lean to the hemiplegic side; • 4 points: the animal cannot walk spontaneously or loses consciousness. 1.4 Assessment of Short-Term Neurological Function
The neurological function of rats was comprehensively evaluated with Garcia score and beam balance test 24 hours after modeling. The criteria of Garcia score are shown in Table 1, which evaluates the movement, sensation, climbing and limb symmetry of the rats with the score range of 3 to 18 points. The lower the score, the more severe the neurological injury. The criteria of the beam balance test are shown in Table 2, which evaluated the proprioception and body coordination of rats with the score range of 0 to 6 points. […]

ICH rats [4] = test: Brain water content and blood-brain barrier permeability (Evans blue), ICH rats; settings: 24 hours after operation, group M, medium-dose intravenous, vs model group
Procedure: After completing the evaluation of 24-hour short-term neurological function, 4% Evans blue solution (2.5 mL/kg) was injected into the right caudal vein of the rats. After circulated for 1 hour, the rats were deeply anesthetized and transcardinally perfused with 100 mL of normal saline to collect the rats' brain. The whole brain was divided into four groups: left hemisphere (LH), right hemisphere (RH), cerebellum (Cb) and brainstem (BS). The left and right hemispheres were coronally divided into two parts, one part was immediately weighed (wet weight) with a balance with an accuracy of 0.1 mg, dried in an oven at 105° C. for 24 hours and weighed again (dry weight). The brain water content was calculated as [(wet weight−dry weight)/wet weight]×100%. The other part of the brain tissue was weighed (wet weight) and emerged into 10 times the volume of pure formamide, incubated at 60° C. for 48 hours, centrifuged at 25° C. for 30 min (10,000 rpm/min). The Evans blue in the supernatant was measured at 622 nm by a UV spectrophotometry, and calculated with a standard curve for quantification. The amount of Evans blue was expressed as μg/g of brain tissue (wet weight).

ICH rats [5] = test: Short-term neurological function of ICH rats (Garcia score, beam balance test); settings: ICH model, 24 hours after modeling; group O, α-asarone emulsion oral administration 40 mg/kg
[6] = group H, α-asarone emulsion injection 30 mg/kg tail vein
[7] = group L, α-asarone emulsion injection 7.5 mg/kg tail vein
[8] = group M, α-asarone emulsion injection 15 mg/kg tail vein

## C/C=C/c1cc(OC)c(OC)cc1OC [α-asarone, trans-2,4,5-trimethoxy-1-propenylbenzene]
ICH rats [1]; Fluo-3 flow cytometry
  calcium level in brain tissue: significantly reduce
ICH rats [1]; Rhodamine 123 flow cytometry
  mitochondrial membrane potential in brain tissue: stabilize
SAH rats [2]; 14 days, groups M, H, O and N
  survival time (vs group S): prolonged
SAH rats [2]; Day 14, group H, α-asarone emulsion injection 30 mg/kg tail vein
  Survival rate: 55.6%
SAH rats [2]; Day 14, group L, α-asarone emulsion injection 7.5 mg/kg tail vein
  Survival rate: 37.5%
SAH rats [2]; Day 14, group M, α-asarone emulsion injection 15 mg/kg tail vein
  Survival rate: 61.5%
SAH rats [2]; Day 14, group O, α-asarone emulsion oral administration 40 mg/kg
  Survival rate: 62.5%
SAH rats [2]; [6]
  24-hour mortality rate: 22.2%
SAH rats [2]; [7]
  24-hour mortality rate: 50.0%
SAH rats [2]; [8]
  24-hour mortality rate: 23.1%
SAH rats [2]; group O, α-asarone emulsion oral administration 40 mg/kg
  24-hour mortality rate: 25.0%
SAH rats [2]; groups M, H, O and N
  mortality rate within 24 hours (vs group S): significantly reduced
SAH rats [3]; [6]
  Beam balance score: 3.22
  Garcia score: 11.79
SAH rats [3]; [7]
  Beam balance score: 3.30
  Garcia score: 10.82
SAH rats [3]; [8]
  Beam balance score: 2.70
  Garcia score: 12.29
SAH rats [3]; group M, 15 mg/kg
  curative effect compared with nimodipine (group N) and vinpocetine (group V): better
ICH rats [4]
  Evans blue content: significantly reduce
  brain water content: significantly reduce
ICH rats [5]
  Beam balance score: 3.41
  Garcia score: 10.17
